Results: patent publication US7148228B2, “Pyrazolopyrimidines and related analogs as HSP90-inhibitors” (Conforma Therapeutics Corporation, priority 2003, dated 2006)

What was measured:
[1] = system: rHSP90 in the MCF7 cell lysates; assay: Cell lysate binding assay (biotin-GM competition); settings: concentration for 50% inhibition of biotin-GM binding to rHSP90 in MCF7 cell lysates
Method: MCF7 breast carcinoma cell lysates were prepared by douncing in lysing buffer (20 mM HEPES, pH 7.3, 1 mM EDTA, 5 mM MgCl2, 100 mM KCl), and then incubated with or without test compound for 30 mins at 4° C., followed by incubation with biotin-GM linked to BioMag™ streptavidin magnetic beads (Qiagen) for 1 hr at 4° C. The tubes were placed on a magnetic rack, and the unbound supernatant removed. The magnetic beads were washed three times in lysis buffer and boiled for 5 mins at 95° C. in SDS-PAGE sample buffer. Samples were analyzed on SDS protein gels, and Western blots done for rHSP90. Bands in the Western Blots were quantitated using the Bio-rad Fluor-S MultiImager, and the % inhibition of binding of rHSP90 to the biotin-GM was calculated.
The IC50 reported is the concentration of test compound needed to achieve 50% inhibition of the biotin-GM binding to rHSP90 in the MCF7 cell lysates.

[2] = system: HER2/Neu protein; assay: HER2 degradation assay; assay type: cell-based; settings: Homo sapiens; 50% degradation of HER2/Neu protein, MCF7 cells, 16 h incubation
Method: MCF7 breast carcinoma cells (ATCC) were grown in Dulbecco's modified Eagle's medium (DMEM) containing 10% fetal bovine serum (FBS) and 10 mM HEPES, and plated in 24 well plates (50% confluent). Twenty-four hrs later (cells are 65–70% confluent), test compounds were added and incubated overnight for 16 h. […] The wells were washed with 1 mL phosphate buffered saline (PBS), and 200 μL trypsin was added to each well. After trypsinization was complete, 50 μL of FBS was added to each well. Then 200 μL cells was transferred to 96 well plates. The cells were pipetted up and down to obtain a single cell suspension. The plates were centrifuged at 2,500 rpm for 1 min using a Sorvall Legend RT™ tabletop centrifuge (Kendro Laboratory Products, Asheville, N.C.). The cells were then washed once in PBS containing 0.2% BSA and 0.2% sodium azide (BA buffer). Phycoerythrin (PE) conjugated anti HER2/Neu antibody (Becton Dickinson, #340552), or PE conjugated anti-keyhole limpet hemacyanin [KLH] (Becton Dickinson, #340761) control antibody was added at a dilution of 1:20 and 1:40 respectively (final concentration was 1 μg/mL) and the cells were pipeted up and down to form a single cell suspension, and incubated for 15 mins. The cells were washed twice with 200 μL BA buffer, and resuspended in 200 μL BA buffer, and transferred to FACSCAN tubes with an additional 250 μL BA buffer. Samples were analyzed using a FACSCalibur™ flow cytometer (Becton Dickinson, San Jose, Calif.) equipped with Argon-ion laser that emits 15 mW of 488 nm light for excitation of the PE fluorochrome. 10,000 events were collected per sample. A fluorescence histogram was generated and the mean fluorescence intensity (MFI) of each sample was determined using Cellquest software. The background was defined as the MFI generated from cells incubated with control IgG-PE, and was subtracted from each sample stained with the HER2/Neu antibody. Cells incubated with DMSO was always done as untreated controls since the compounds were resuspended in DMSO. Percent degradation of HER2 was calculated as follows: % HER2 degraded=[(MFI untreated cells−MFI treated cells)/MFI untreated cell]×100
IC50 is defined as the concentration at which there was 50% degradation of the HER2/Neu protein.

[3] = system: MCF7 breast carcinoma cells; assay: MTS assay; assay type: cell-based; settings: Homo sapiens, concentration giving 50% viable cell number
Method: MTS assays measures the cytotoxicity of geldanamycin derivatives. MTS (3-(4,5-dimethylthiazol-2-yl)-5-(3-carboxymethoxyphenyl)-2-(4-sulfophenyl)-2H-tetrazolium is a tetrazolium dye that is converted to a formazan product by dehydrogenase enzymes of metabolically active cells (Corey, A. et al. “Use of an aqueous soluble tetrazolium/formazan assay for cell growth assays in culture,” Cancer Commun. 1991, 3, 207–212). Cells were seeded in 96 well plates at 2000 cells/well and allowed to adhere overnight in Dulbecco's modified Eagle's medium supplemented with 10% fetal bovine serum. The final culture volume was 100 μl. Viable cell number was determined by using the Celltiter 96 AQueous Non-radioactive Cell Proliferation Assay (Promega, Madison Wis.). The MTS/PMS (phenazine methosulfate) solution was mixed at a ratio of 20:1, and 20 μL was added per well to 100 μl of culture medium. After 2–4 hours, the formation of the formazan product was measured at 490 nm absorbance using a multiwell plate spectrophotometer. Background was determined by measuring the Abs 490 nm of cell culture medium and MTS-PMS in the absence of cells and was subtracted from all values. Percent viable cells was calculated as follows: % viable cells=(Abs at 490 nm treated cells/Abs at 490 nm untreated cells)×100
The effect of selected compounds of the invention on MCF7 breast carcinoma cells according to the MTS assay is summarized in Table 2. IC50 was defined as the concentration of the compound which gave rise to 50% viable cell number.

SMILES	IC50 [1]	IC50 [2]	IC50 [3]
CCc1nn(Cc2ncc(C)c(OC)c2C)c2nc(N)nc(Cl)c12 [Example 29, 4-Chloro-3-ethyl-1-(4-methoxy-3,5-dimethyl-pyridin-2-ylmethyl)-1H-pyrazolo[3,4-d]pyrimidin-6-ylamine]	100 nM	850 nM	1000 nM
CCc1nn(Cc2ncc(C)c(Cl)c2C)c2nc(N)nc(Cl)c12 [Example 30, 4-Chloro-1-(4-chloro-3,5-dimethyl-pyridin-2-ylmethyl)-3-ethyl-1H-pyrazolo[3,4-d]pyrimidin-6-ylamine]		110 nM	1000 nM
Cc1cnc(Cn2ncc3c(Cl)nc(N)nc32)c(C)c1Cl [Example 9, 4-Chloro-1-(4-chloro-3,5-dimethyl-pyridin-2-ylmethyl)-1H-pyrazolo[3,4-d]pyrimidin-6-ylamine]		90 nM	300 nM
COc1c(C)cnc(Cn2nc(C(C)C)c3c(Cl)nc(N)nc32)c1C [Example 31, 4-Chloro-3-isopropyl-1-(4-methoxy-3,5-dimethyl-pyridin-2-ylmethyl)-1H-pyrazolo[3,4-d]pyrimidin-6-ylamine]		50 nM	300 nM
COc1c(C)c(Cl)nc(Cn2ncc3c(Cl)nc(N)nc32)c1C [Example 8, 4-Chloro-1-(6-chloro-4-methoxy-3,5-dimethyl-pyridin-2-ylmethyl)-1H-pyrazolo[3,4-d]pyrimidin-6-ylamine]		140 nM	500 nM
Cc1cnc(Cn2nc(C)c3c(Cl)nc(N)nc32)c(C)c1Cl [Example 26, 4-Chloro-1-(4-chloro-3,5-dimethyl-pyridin-2-ylmethyl)-3-methyl-1H-pyrazolo[3,4-d]pyrimidin-6-ylamine]	90 nM	50 nM	
Cc1c[n+]([O-])c(Cn2ncc3c(Cl)nc(N)nc32)c(C)c1Br [Example 15, 1-(4-Bromo-3,5-dimethyl-1-oxy-pyridin-2-ylmethyl)-4-chloro-1H-pyrazolo[3,4-d]pyrimidin-6-ylamine]		900 nM	
Cc1cnc(Cn2nc(-c3ccccc3)c3c(Cl)nc(N)nc32)c(C)c1Cl [Example 33, 4-Chloro-1-(4-chloro-3,5-dimethyl-pyridin-2-ylmethyl)-3-phenyl-1H-pyrazolo[3,4-d]pyrimidin-6-ylamine]		160 nM	600 nM
Cc1cnc(Cn2ncc3c(Cl)nc(N)nc32)c(C)c1Br [Example 14, 1-(4-Bromo-3,5-dimethyl-pyridin-2-ylmethyl)-4-chloro-1H-pyrazolo[3,4-d]pyrimidin-6-ylamine]	110 nM	90 nM	1000 nM
Cc1cnc(Cn2nc(-c3ccccc3)c3c(Cl)nc(N)nc32)c(C)c1Br [Example 34, 1-(4-Bromo-3,5-dimethyl-pyridin-2-ylmethyl)-4-chloro-3-phenyl-1H-pyrazolo[3,4-d]pyrimidin-6-ylamine]		120 nM	1000 nM

Other lines, results leading:

IC50 [1]	IC50 [2]	IC50 [3]	SMILES
80 nM	20 nM	1000 nM	Cc1c[n+]([O-])c(Cn2nc(-c3ccccc3)c3c(Cl)nc(N)nc32)c(C)c1Cl [Example 35, 4-Chloro-1-(4-chloro-3,5-dimethyl-1-oxy-pyridin-2-ylmethyl)-3-phenyl-1H-pyrazolo[3,4-d]pyrimidin-6-ylamine]
	40 nM	100 nM	COc1c(C)cnc(Cn2nc(C)c3c(Cl)nc(N)nc32)c1C [Example 23, 4-Chloro-1-(4-methoxy-3,5-dimethyl-pyridin-2-ylmethyl)-3-methyl-1H-pyrazolo[3,4-d]pyrimidin-6-ylamine]
140 nM	50 nM	130 nM	COc1c(C)cnc(Cn2ncc3c(Cl)nc(N)nc32)c1C [Example 7, 4-Chloro-1-(4-methoxy-3,5-dimethyl-pyridin-2-ylmethyl)-1H-pyrazolo[3,4-d]pyrimidin-6-ylamine]
	40 nM	80 nM	COc1c(C)cnc(Cn2nc(-c3ccccc3)c3c(Cl)nc(N)nc32)c1C [Example 32, 4-Chloro-1-(4-methoxy-3,5-dimethyl-pyridin-2-ylmethyl)-3-phenyl-1H-pyrazolo[3,4-d]pyrimidin-6-ylamine]
	40 nM	1000 nM	Cc1cnc(Cn2nc(C)c3c(Cl)nc(N)nc32)c(C)c1Br [Example 28, 1-(4-Bromo-3,5-dimethyl-pyridin-2-ylmethyl)-4-chloro-3-methyl-1H-pyrazolo[3,4-d]pyrimidin-6-ylamine]
	30 nM	1000 nM	Cc1c[n+]([O-])c(Cn2nc(C)c3c(Cl)nc(N)nc32)c(C)c1Br [Example 24, 1-(4-Bromo-3,5-dimethyl-1-oxy-pyridin-2-ylmethyl)-4-chloro-3-methyl-1H-pyrazolo[3,4-d]pyrimidin-6-ylamine]
	30 nM	300 nM	Cc1c[n+]([O-])c(Cn2nc(C)c3c(Cl)nc(N)nc32)c(C)c1Cl [Example 25, 4-Chloro-1-(4-chloro-3,5-dimethyl-1-oxy-pyridin-2-ylmethyl)-3-methyl-1H-pyrazolo[3,4-d]pyrimidin-6-ylamine]
